One assay addresses T1, IL-17A/A (Homo sapiens, UniProt Q16552).
T1 sequence (Q16552 24-155): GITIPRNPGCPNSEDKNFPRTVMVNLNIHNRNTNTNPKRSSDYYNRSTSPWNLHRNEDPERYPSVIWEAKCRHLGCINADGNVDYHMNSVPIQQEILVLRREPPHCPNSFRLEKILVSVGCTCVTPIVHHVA
Nature of the assay: IL-17A/A HEK-Blue Cell Assay. The assay is classed as cell-based. The conditions noted are these: HEK-Blue IL-17 reporter cells, IL-17A/A stimulation, 20 hours, SEAP readout; read-out: IL17 AA HEK-5 pIC50 (converted). The method in brief: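 Cells co-expressing IL-17RA, IL-17RC and Act1 received titrated compound, top final 10 uM in 0.1% DMSO, immediately before IL-17A/A stimulation.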

Another assay deals with T2, IL-17A/F (Homo sapiens, UniProt Q16552+Q96PD4).
T2 sequence (Q16552 24-155): T1 sequence (Q16552 24-155)
T2 sequence (Q96PD4 31-163): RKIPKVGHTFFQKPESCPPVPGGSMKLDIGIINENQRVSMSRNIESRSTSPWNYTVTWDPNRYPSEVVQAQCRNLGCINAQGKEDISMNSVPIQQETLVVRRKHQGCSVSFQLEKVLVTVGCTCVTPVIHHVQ
Nature of the assay: IL-17A/F HEK-Blue Cell Assay. In kind it is cell-based. The note with it: HEK-Blue IL-17 reporter cells, IL-17A/F stimulation, 20 hours, SEAP readout; read-out: IL17AF HEK Blue pIC50 (converted).

For `CO[C@@H](C)C(=O)N[C@@H](C(=O)N1CCN(C)CC1)[C@@H](C)c1ccc(NC(=O)[C@@H](NC(=O)c2ccnn2C2CC2)C(C2CC2)C2CC2)c(F)c1` [Compound 341], the IC50 on IL-17A/A is less than 10 nM; on IL-17A/F, 100 to 10000 nM.
For `CCOC(C)C(=O)N[C@@H](C(=O)N1CCN(C)[C@H](C)C1)[C@@H](C)c1ccc(NC(=O)[C@@H](NC(=O)c2ccnn2CC)C(C2CC2)C2CC2)c(F)c1` (single isomer, unassigned) [Compound 320], in that order: 10 to 100 nM and 100 to 10000 nM.
